Laboratory results published in PMC3176295 (Bioorganic & medicinal chemistry, 2011).

Key:
[1] = test system: M. tuberculosis H37Rv; assay: MIC determination by microbroth dilution against M. tuberculosis; type: cell-based, Mycobacterium tuberculosis; details: for antitubercular activity / MIC in words: M. tuberculosis
[2] = biological target: EphB (Rv1938) (Mycobacterium tuberculosis, UniProt I6YC03); type: biochemical; details: 10 nM
[3] = biological target: EphE (Rv3670) (Mycobacterium tuberculosis, UniProt O69638); assay: EphE inhibition, fluorescent assay with Epoxy Fluor 7; type: biochemical, M. tuberculosis; details: for EphE activity in words: 10 nM; for % EphE Inhibition at 10 nM: inhibitor 10 nM, substrate 5 μM, duplicate; for inhibition at 0.01 µM: read-out: % EphE Inhibition at 10 nM, inhibitor 10 nM, substrate 5 μM, duplicate

Sequence of EphB (Rv1938) (I6YC03 whole entry): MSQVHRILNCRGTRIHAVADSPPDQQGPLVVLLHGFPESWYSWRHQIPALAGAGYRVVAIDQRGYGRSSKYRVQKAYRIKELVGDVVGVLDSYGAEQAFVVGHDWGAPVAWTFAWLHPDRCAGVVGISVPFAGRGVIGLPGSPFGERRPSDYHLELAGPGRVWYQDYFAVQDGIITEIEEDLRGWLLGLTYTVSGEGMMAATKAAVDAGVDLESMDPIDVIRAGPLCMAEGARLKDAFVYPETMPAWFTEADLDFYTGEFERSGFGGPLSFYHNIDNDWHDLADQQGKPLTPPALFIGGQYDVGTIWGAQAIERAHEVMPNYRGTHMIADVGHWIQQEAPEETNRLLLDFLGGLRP

Compound | antitubercular activity / MIC in words [1] | EphB inhibition in words [2] | EphE activity in words [3] | further results
COC(=O)c1ccc(NC(=O)NC23CC4CC(CC(C4)C2)C3)cc1O [Compound 36, Methyl 4-(3-(1-adamantyl)ureido)-2-hydroxybenzoate] | good antitubercular activity |  |  | 
O=C(Nc1ccc(F)c(F)c1F)OC1C2CC3CC(C2)CC1C3 (stereo not shown) [Compound 32, 2-Adamantyl 2,3,4-trifluorophenylcarbamate] |  |  |  | additional fold decrease in anti-M. tuberculosis potency ([1]; carbamate, additional to the decrease of thiourea 31): 10 fold
CCCCCCNC(=O)NC1C2CC3CC(C2)CC1C3 (stereo not shown) [Compound 20, 1-(2-Adamantyl)-3-hexylurea] | good MIC values | relatively poor EphB inhibition | good EphE activity | % EphE Inhibition at 10 nM [3]: > 70%
O=C(NCC12CC3CC(CC(C3)C1)C2)Nc1ccc(F)c(F)c1F [Compound 3, 1-(1-(1-Adamantyl)methyl)-3-(2,3,4-trifluorophenyl)urea] | good MIC values | relatively poor EphB inhibition | good EphE activity | % EphE Inhibition at 10 nM [3]: > 70%
N#Cc1ccc(NC(=O)NC2C3CC4CC(C3)CC2C4)cc1 (stereo not shown) [Compound 10, 1-(2-Adamantyl)-3-(4-cyanophenyl)urea] | good MIC values | relatively poor EphB inhibition | good EphE activity | 
O=C(Nc1ccc(F)c(F)c1F)NC1C2CC3CC(C2)CC1C3 (stereo not shown) [Compound 1, 1-(2-Adamantyl)-3-(2,3,4-trifluorophenyl)urea] |  |  |  | inhibition at 0.01 µM [3]: > 70%
CC(C)CCOc1ccc(NC(=O)Nc2ccc(OCCC(C)C)cc2)cc1 [Compound 41, 1,3-Bis(4-(isopentyloxy)phenyl)urea] | inactive |  |  | 
COc1ccc(NC(=O)NC2C3CC4CC(C3)CC2C4)cc1 (stereo not shown) [Compound 35, 1-(2-Adamantyl)-3-(4-methoxyphenyl)urea] | good antitubercular activity |  |  | 
Cc1ccc(NC(=O)NC2CCCCCCC2)cc1Cl [Compound 24, 1-(3-Chloro-4-methylphenyl)-3-cyclooctylurea] |  |  |  | % EphE Inhibition at 10 nM [3]: > 70%
O=C(NCCc1ccccc1)NC1C2CC3CC(C2)CC1C3 (stereo not shown) [Compound 11, 1-(2-Adamantyl)-3-phenethylurea] | good MIC values | relatively poor EphB inhibition | good EphE activity | inhibition at 0.01 µM [3]: > 70%
Cc1ccc(NC(=O)NCC23CC4CC(CC(C4)C2)C3)cc1Cl [Compound 22, 1-(1-(1-Adamantyl)methyl)-3-(3-chloro-4-methylphenyl)urea] | good MIC values | relatively poor EphB inhibition | good EphE activity | 
Fc1ccc(NC(=S)NC2C3CC4CC(C3)CC2C4)c(F)c1F (stereo not shown) [Compound 31, 1-(2-Adamantyl)-3-(2,3,4-trifluorophenyl)thiourea] |  |  |  | fold decrease in MIC activity ([1]; thiourea versus urea 1): 80 fold
